# Assay results as given in publication PMC10145531, “Platinum(IV)-Loaded Degraded Glycol Chitosan as Efficient Platinum(IV) Drug Delivery Platform” (Pharmaceutics, 2023).
# Like-named read-outs stand apart in the source and are kept apart here.
# Key:
# [1] = test system: A549 (non-small-cell lung carcinoma); test: MTT cytotoxicity assay, A549 cells (96 h); format: cell-based, human
# Description: (§1) Cell culture of the cell lines CH1/PA-1, SW480 and A549 was performed as described in reference. 4T1 cells were purchased from American Type Culture Collection, stored in a liquid nitrogen dewar and cultured in Roswell Park Memorial Institute (RPMI)-1640 medium supplemented with 10% foetal bovine serum (FBS) (Thermo Fisher, Waltham, MA, USA).
# (§2) Cytotoxicity tests (96 h incubation) in the cell lines CH1/PA-1, SW480 and A549 were conducted as described in reference. Compounds were dissolved in supplemented minimum essential medium (MEM), except for compound C10, which was dissolved in sterile Milli-Q water.
# (§3) Based on the required solubility, conjugates C1–C12 were forwarded for cytotoxicity assessments, whereas conjugates S1–S5 could not be tested due to solubility issues (Supporting Information, Table S1). The twelve substances C1–C12 were examined in comparison to the free platinum(IV) complexes and the unloaded dGC polymers with three different chain lengths for their cytotoxic activity in vitro. For this purpose, the colorimetric MTT assay was used in three human cancer cell lines (A549 (non-small-cell lung carcinoma), CH1/PA-1 (ovarian teratocarcinoma) and SW480 (colon adenocarcinoma)), yielding IC50 values in the low micromolar to nanomolar concentration range for all conjugates (Table 3, Supporting Information, Figures S18–S20). The three tested cell lines differ in their platinum sensitivity. SW480 and A549 cells are intrinsically cisplatin- and carboplatin-resistant due to their low expression of CTR1, whereas CH1/PA-1 cells show high chemosensitivity, particularly to platinum drugs.
# [2] = test system: CH1/PA-1 (ovarian teratocarcinoma); test: MTT cytotoxicity assay, CH1/PA-1 cells (96 h); format: cell-based, human
# Description: as §1, §2, §3
# [3] = test system: SW480 (colon adenocarcinoma); test: MTT cytotoxicity assay, SW480 cells (96 h); format: cell-based, human
# Description: as §1, §2, §3
# [4] = test system: A549 (non-small-cell lung carcinoma); set-up: method as in PMID 36432656; conditions: MTT, 96 h; cited from earlier work
# [5] = test system: CH1/PA-1 (ovarian teratocarcinoma); set-up: method as in PMID 36432656; conditions: MTT, 96 h; cited from earlier work
# [6] = test system: SW480 (colon adenocarcinoma); set-up: method as in PMID 36432656; conditions: MTT, 96 h; cited from earlier work
# [7] = Biodistribution study (platinum content of organs by ICP-MS) in non-tumour-bearing mice; format: in vivo, Balb/C mice
# Description: The Animal Welfare and Ethical Review Body at University College London (UCL) authorised all animal experiments, which were performed under license from the Home Office, UK. […] All substances were applied intravenously (100 µL stock/20 g body weight) via tail vein injection. At the chosen time points, animals were culled with CO2, and the major organs (lung, heart, liver, spleen and kidneys) were collected and frozen in liquid nitrogen. The samples were transferred to the Institute of Inorganic Chemistry, University of Vienna, Austria, where the total platinum content of each sample was determined with an Agilent 7500 ICP-quadrupole MS instrument.
# The major organs of liver, lung, heart, kidney and spleen were collected after two specific time points (1 h and 24 h), and the platinum content of each organ was evaluated with ICP-MS analysis (Figure 3).
# [8] = MTT, 96 h incubation, read-out: IC50 [µM] A549
# [9] = free platinum(IV) complexes: equals measured IC50 of Table 3, read-out: Concentration of Pt(IV) Units at IC50 [µM] A549
# [10] = MTT, 96 h incubation, read-out: IC50 [µM] CH1/PA-1
# [11] = free platinum(IV) complexes: equals measured IC50 of Table 3, read-out: Concentration of Pt(IV) Units at IC50 [µM] CH1/PA-1
# [12] = MTT, 96 h incubation, read-out: IC50 [µM] SW480
# [13] = free platinum(IV) complexes: equals measured IC50 of Table 3, read-out: Concentration of Pt(IV) Units at IC50 [µM] SW480
Compound,"IC50 [1, 8]","IC50 [1, 9]","IC50 [2, 10]","IC50 [2, 11]","IC50 [3, 12]","IC50 [3, 13]",IC50 [4],IC50 [5],IC50 [6],"organ distribution of platinum (ICP-MS) ([7]; 1 h post i.v. administration, 6: 0.15 mg/100 µL, V3: 0.41 mg/100 µL)","change of platinum amount in organs at 24 h vs 1 h ([7]; 24 h post i.v. injection, 6: 0.15 mg/100 µL, V3: 0.41 mg/100 µL)","increase of platinum amount in the kidneys after 24 h vs 1 h ([7]; i.v., 0.15 mg/100 µL (5.5 mg/kg oxaliplatin equivalent), female Balb/C mice)","tolerability in mice ([7]; i.v., 6: equivalent to 5.5 mg/kg oxaliplatin, V3: equivalent to 2.75 mg/kg oxaliplatin)"
(OC-6-44)-Acetatodiammine(3-carboxypropanoato)dichloridoplatinum(IV) [compound 2],99 ± 17 µM,99 ± 17 µM,1.2 ± 0.5 µM,1.2 ± 0.5 µM,47 ± 10 µM,47 ± 10 µM,–,–,–,–,–,–,–
"N.N.O=C([O-])C1(C(=O)[O-])CCC1.[Pt+2] [Carboplatin, carboplatin]",–,–,–,–,–,–,38 ± 3 µM,0.79 ± 0.11 µM,42 ± 10 µM,–,–,–,–
"(OC-6-44)-Acetato(3-carboxypropanoato)(1R,2R-cyclohexane-1,2-diamine)oxalatoplatinum(IV) [compound 6]",70 ± 29 µM,–,4.1 ± 0.6 µM,4.1 ± 0.6 µM,22 ± 8 µM,–,–,–,–,highest concentrations in the excretory organs (kidney and liver),only slightly raised in all systemic organs,2.1 fold,well tolerated without signs of toxicity
"O=C1[O][Pt]2([NH][C@@H]3CCCC[C@H]3[NH]2)[O]C1=O [Oxaliplatin, oxaliplatin]",–,–,–,–,–,–,0.98 ± 0.21 µM,0.18 ± 0.01 µM,0.29 ± 0.05 µM,–,–,–,–
"N.N.[Cl][Pt][Cl] [Cisplatin, cisplatin]",–,–,–,–,–,–,3.8 ± 1 µM,0.073 ± 0.001 µM,2.3 ± 0.2 µM,–,–,–,–
"(OC-6-44)-Acetaodiammine(3-carboxypropanoato)(cyclobutane-1,1-dicarboxylato)platinum(IV) [compound 4]",> 200 µM,> 200 µM,16 ± 6 µM,16 ± 6 µM,> 200 µM,> 200 µM,–,–,–,–,–,–,–
